Measured values published in patent EP1157000B1 (Warner-Lambert Company LLC, priority 1999, dated 2001).
Counter-ions that a name gives are not always drawn. Like-named read-outs stand apart in the source and are kept apart here.

Target: T1, rBCATc (Rattus norvegicus, UniProt P54690)
T1 construct: The supernatant was dialyzed with at least three changes of dialysis buffer; from tissue; host or cells: rat brain (high-speed supernatant of homogenate, dialyzed)
T1 sequence (P54690 1-411): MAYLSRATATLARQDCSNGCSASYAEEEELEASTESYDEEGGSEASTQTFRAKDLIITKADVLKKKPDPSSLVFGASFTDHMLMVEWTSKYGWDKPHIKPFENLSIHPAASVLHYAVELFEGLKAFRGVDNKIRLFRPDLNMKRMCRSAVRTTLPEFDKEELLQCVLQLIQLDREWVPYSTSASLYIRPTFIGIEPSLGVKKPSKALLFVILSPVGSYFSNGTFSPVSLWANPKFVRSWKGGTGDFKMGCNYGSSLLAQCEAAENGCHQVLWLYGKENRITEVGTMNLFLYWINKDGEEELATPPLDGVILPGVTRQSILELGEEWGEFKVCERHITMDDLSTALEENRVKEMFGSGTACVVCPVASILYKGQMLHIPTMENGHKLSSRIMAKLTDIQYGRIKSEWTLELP
Assay: Assay of BCAT ([14C] L-leucine transamination, rat brain supernatant enzyme)
Assay type: biochemical
Settings: 10 mM 2-oxoglutarate, pH 8.3, 10 min, 22 °C
Method: Enzyme preparation: Frozen rat brains were thawed on ice and minced into fine pieces. […] The samples were homogenized in Potters homogenizer (B. Bran Biotech International) at 500 rpm for ten strokes, followed by additional ten strokes at 800 rpm. The homogenates were centrifuged in Beckman J2-M1 centrifuge with rotor JA-20 at 19, 000 rpm for 1 hr. […] The resulting enzyme was stored at -80 °C for further assays.
The solutions for the reaction mixture were made in 10-fold concentrations. After 10 min incubation at room temperature (22 °C), the reaction was stopped by adding 100 µl of 15 mM p-nitrophenyl hydrazine in 2 M HCL. After a few minutes, 1 mL of a toluene-based scintillation liquid (4.5 g of PPO and 0.5 g ofbis-MSB in 1 liter of toluene) was added, the tube was capped and mixed thoroughly with a Vortex mixer. […] Six hundreds µl of organic layer from each tube was placed into scintillation vials, followed by adding 10 ml of scintillation cocktail for counting.

[1] = 25 µM [14C] L-leucine, read-out: rBCATc IC50

SMILES | IC50 [1] [µM] | IC50 (rBCATc IC50, 25 µM [14C] L-leucine) [µM]
O=C(O)CC1(CNCC2CCCCC2)CCCCC1 [Example 38, {1-[(Cyclohexylmethyl-amino)-methyl]-cyclohexyl}-acetic acid; hydrochloric salt] | 2620 | –
CC1CCCCC1(CN)CC(=O)O (single isomer, unassigned) [Example 2, (1-Aminomethyl-2-methyl-cyclohexyl)-acetic acid hydrochloride] | – | 1140
CC(CO)NCC1(CC(=O)O)C[C@H](C)C[C@H](C)C1 (stereo partly drawn) [Example 43, {(3R, 5S)-1-[(2-Hydroxy-1-methyl-ethylamino)-methyl]-3,5-dimethyl-cyclohexyl}-acetic acid; hydrochloride salt] | 2080 | –
CC(=O)NCC1(CC(=O)O)CCCCC1 [Example 40, [1-(Acetylamino-methyl)-cyclohexyl]-acetic acid] | 3800 | –
C[C@H]1CC(CN)(CC(=O)O)C[C@@H]1C [Example 7, (+)-(trans)-(1-Aminomethyl-3,4-dimethyl-cyclopentyl)-acetic acid hydrochloride] | 2170 | –
NCC1(CC(=O)O)CCCC1 [Example 24, Sodium salt of 1-aminomethyl-1-cyclopentane-acetic acid] | 942 | –
C[C@@H]1C[C@H](C)C[C@](CO)(CC(=O)O)C1 [Example 49, trans-((3R, 5S)-1-Hydroxymethyl-3,5-dimethyl-cyclohexyl-acetic acid; hydrochloride salt] | 84 | –
C[C@@H]1C[C@H](C)C[C@@](CO)(CC(=O)O)C1 [Example 50, cis-((3R, 5S)-1-Hydroxymethyl-3,5-dimethyl-cyclohexyl-acetic acid; hydrochloride salt] | 842 | –
CCNCC1(CC(=O)O)C[C@H](C)C[C@H](C)C1 (stereo in doubt) [Example 59, ((3R, 5S)-1-Ethylaminomethyl-3,5-dimethyl-cyclohexyl)-acetic acid; hydrochloride salt] | 3370 | –
C[C@@H]1C[C@H](C)CC(CNC2CCC2)(CC(=O)O)C1 (stereo partly drawn) [Example 41, ((3R, 5S)-1-Cyclobutylaminomethyl-3,5-dimethyl-cyclohexyl)-acetic acid; hydrochloride salt] | 363 | –
CC(CO)NCC1(CC(=O)O)CCCCC1 (centres unmarked) [Example 30, {1-[(2-Hydroxy-1-methyl-ethylamino)-methyl]-cyclohexyl}-acetic acid hydrochloride salt] | 2250 | –
C[C@@H]1CCC(CN)(CC(=O)O)C1 (mixture of isomers) [Example 5, (cis/trans)-(3R)-(1-Aminomethyl-3-methyl-cyclopentyl)-acetic acid hydrochloride] | 2930 | –
C[C@@H]1C[C@H](C)C[C@@](CC(=O)O)(CN(C)Cc2ccccc2)C1 [Example 14, 1α,3β,5β-{1-[(Benzyl-methyl-amino)-methyl]-3,5-dimethylcyclohexyl}-acetic acid; hydrochloride salt] | 8590 | –
CCCC1CCC(CN)(CC(=O)O)CC1 (centres unmarked) [Example 61, (1-Aminomethyl-4-propyl-cyclohexyl)-acetic acid; hydrochloric salt] | 114 | –
CCCNCC1(CC(=O)O)C[C@H](C)C[C@H](C)C1 (stereo in doubt) [Example 62, ((3R, 5S)-3,5-Dimethyl-1-propylaminomethyl-cyclohexyl)-acetic acid; hydrochloride salt] | 4220 | –
C[C@@H]1C[C@H](C)CC(CNCC2CCCC2)(CC(=O)O)C1 (stereo partly drawn) [Example 45, {(3R, 5S)-1-[(Cyclopentylmethyl-amino)-methyl]-3,5-dimethylcyclohexyl}-acetic acid; hydrochloride salt] | 1330 | –
C[C@@H]1C[C@H](C)C[C@](CN)(CC(=O)O)C1 [Example 8, 1α,3β,5β-(1-Aminomethyl-3,5-dimethyl-cyclohexyl)-acetic acid hydrochloride] | 74 | –
CN(C)CC1(CC(=O)O)CCCCC1 [Example 51, (1-Dimethylaminomethyl-cyclohexyl)-acetic acid; hydrochloride salt] | > 10000 | –
O=C(O)CC1(CNCC2CCCC2)CCCCC1 [Example 37, {1-[Cyclopentylmethyl-amino)-methyl]-cyclohexyl}-acetic acid; hydrochloric salt] | 1190 | –
C[C@@H]1C[C@H](C)CC(CNC2CCCCC2)(CC(=O)O)C1 (stereo partly drawn) [Example 47, ((3R, 5S)-1-Cyclohexylaminomethyl-3,5-dimethyl-cyclohexyl)-acetic acid; hydrochloride salt] | 15600 | –
CNCC1(CC(=O)O)CCCCC1 [Example 54, (1-methylaminomethyl-cyclohexyl)-acetic acid; hydrochloride salt] | 217 | –

SMILES | IC50 [1] [µM] | IC50 (rBCATc IC50, 25 µM [14C] L-leucine) [µM]
O=C(O)CC1(CO)CCCCC1 [Example 25, Sodium salt of 1-(hydroxymethyl)cyclohexane-acetic acid] | 170 | –
CC(C)NC[C@@]1(CC(=O)O)C[C@H](C)C[C@H](C)C1 [Example 21, 1α,3β,5β-(1-(Isopropylamino-methyl)-3,5-dimethyl-cyclohexyl]-acetic acid hydrochloride salt] | 169 | –
CCNCC1(CC(=O)O)CCCCC1 [Example 28, (1-Ethylaminomethyl-cyclohexyl)-acetic acid hydrochloride salt] | 181 | –
CCC(C)CNCC1(CC(=O)O)CCCCC1 (centres unmarked) [Example 26, {1-[(2-Methyl-butylamino)-methyl]-cyclohexyl}-acetic acid; hydrochloride salt] | 8590 | –
C[C@@H]1CC(CN)(CC(=O)O)C[C@H]1C (racemic) [Example 4, (±)-(trans)-(1-Aminomethyl-3,4-dimethyl-cyclopentyl)-acetic acid hydrochloride] | 2510 | –
O=C(O)CC1(CNCCCC(F)(F)F)CCCCC1 [Example 27, {1-[(4,4,4-Trifluoro-butylamino)-methyl]-cyclohexyl}-acetic acid; hydrochloride salt] | 1550 | –
CNC[C@@]1(CC(=O)O)C[C@H](C)C[C@H](C)C1 [Example 15, 1α,3β,5β-(3,5-Dimethyl-1-methylaminomethyl-cyclohexyl)-acetic acid; hydrochloride salt] | 82 | –
CCCCNCC1(CC(=O)O)CCCCC1 [Example 52, (1-Butylaminomethyl-cyclohexyl)-acetic acid; hydrochloride salt] | 2520 | –
C[C@@H]1C[C@H](C)C[C@](CNCc2ccccc2)(CC(=O)O)C1 [Example 11, 1α,3β,5β-(1-Benzylamino-methyl)-3,5-dimethyl-cyclohexyl]-acetic acid; hydrochloride salt] | 1390 | –
CC(C)CNC[C@@]1(CC(=O)O)C[C@H](C)C[C@H](C)C1 [Example 17, 1α,3β,5β-(1-(Isobutylamino-methyl)-3,5-dimethyl-cyclohexyl]-acetic acid hydrochloride salt] | > 10000 | –
O=C(O)CC1(CNCc2ccccc2)CCCCC1 [Example 35, [1-(Benzylamino-methyl)-cyclohexyl]-acetic acid hydrochloride salt] | 1770 | –
C[C@@H]1C[C@H](C)CC(CNCC2CCCCC2)(CC(=O)O)C1 (stereo partly drawn) [Example 46, {(3R, 5S)-1-[(Cyclohexylmethyl-amino)-methyl]-3,5-dimethylcyclohexyl}-acetic acid; hydrochloride salt] | 1130 | –
CN(Cc1ccccc1)CC1(CC(=O)O)CCCCC1 [Example 55, {1-[(Benzyl-methyl-amino)-methyl]-cycloheayl}-acetic acid; hydrochloride salt] | 9240 | –
CC(=O)NC[C@@]1(CC(=O)O)C[C@H](C)C[C@H](C)C1 [Example 16, 1α,3β,5β-[1-(Acetylamino-methyl)-3,5-dimethyl-cyclohexyl]-acetic acid] | 1320 | –
COC(CNCC1(CC(=O)O)CCCCC1)OC [Example 53, {1-[2,2-Dimethoxy-ethylamino)-methyl]-cyclohexyl}-acetic acid; hydrochloride salt] | 3340 | –
NCC1(CC(=O)O)CCCCC1 [Example 22, 1-Aminomethyl-1-cyclohexane-acetic acid] | 389 | –
CC(C)NCC1(CC(=O)O)CCCCC1 [Example 33, [1-(Isopropylamino-methyl)-cyclohexyl]-acetic acid hydrochloride salt] | 1020 | –
O=C(O)CC1(CNC2CCCCC2)CCCCC1 [Example 34, (1-Cyclohexylaminomethyl-cyclohexyl)-acetic acid hydrochloride salt] | 3220 | –
C[C@@H]1C[C@H](C)CC(CC(=O)O)(CC(=O)O)C1 [Example 48, ((3R,5S)-1-Carboxymethyl-3,5-dimethyl-cyclohexyl)-acetic acid] | 8530 | –
O=C(O)CC1(CNCC2CC2)CCCCC1 [Example 29, {1-[(Cyclopropylmethyl-amino)-methyl]-cyclohexyl}-acetic acid hydrochloride salt] | 391 | –
